A short description of data set [1]: Antioxidant activity assessed as trolox equivalent of ORAC radical scavenging activity by ORAC-FL assay. The format is functional.
The target in the next data set is Butyrylcholinesterase (Rattus norvegicus, UniProt Q9JKC1). The experiment in a line: Inhibition of rat serum Butyrylcholine esterase using butyrylthiocholine as substrate incubated for 15 mins by DTNB reagent based Ellman's method. The format is cell-free. (In Ellman's method for cholinesterases, released thiocholine reacts with DTNB.)
The target of data set [2] is T1, Acetylcholinesterase (Homo sapiens, UniProt P22303). In words: Inhibition of human erythrocyte AChE using acetylthiocholine as substrate incubated for 15 mins by DTNB reagent based Ellman's method. The format is cell-based.
The target of data set [3] is T1, Acetylcholinesterase. In words: Pseudo-irreversible inhibition of human AChE assessed as restoration of enzyme activity at 0.1 time of IC50 concentration incubated for 120 mins by dilution method relative to control. Further details: scale not given: the % may be the effect or the level left.
Data set [4] deals with Amyloid-beta precursor protein (Homo sapiens) (UniProt P05067). In words: Inhibition of amyloid beta (1 to 42) (unknown origin) self-induced fibril formation at 25 uM incubated for 24 hrs by transmission electron microscopic analysis.
The nature of data set [5]: Effect on tau protein expression in pRK5-GFP-Tau P301L plasmid transfected mouse HT-22 cells assessed as reduction in fluorescence intensity at 20 uM by fluorescence microscopic analysis (reference value: 35.0). The format is functional.
The nature of data set [6]: Effect on APP protein expression in pEGFP-N1-APP plasmid transfected mouse HT-22 cells assessed as decrease in fluorescence intensity at 5 uM incubated for 24 hrs by fluorescence microscopic analysis (reference value: 30.7). It counts as functional.
A short description of data set [7]: Effect on APP protein expression in pEGFP-N1-APP plasmid transfected mouse HT-22 cells assessed as decrease in fluorescence intensity at 20 uM incubated for 24 hrs by fluorescence microscopic analysis (reference value: 30.7). The format is functional.
The next data set concerns PC-12. In words: Neuroprotective activity against H2O2-induced cytotoxicity in rat PC-12 cells assessed as increase in cell viability at 5 uM by MTT assay relative to control. The format is functional. In general terms: Formazan colour is commonly taken as a measure of viable cells.
Data set [8] can be described thus: Metal chelating activity assessed as Al3+-compound complex formation by measuring maximum absorption wavelength shift in the presence of AlCl3 by UV-visible spectrometric analysis.
A further data set deals with L02. The experiment in a line: Cytotoxicity against human L02 cells assessed as decrease in cell viability at 40 uM by MTT assay relative to control. As to conditions: l02, 40 µM. It counts as toxicity, cell-based.

Activity calls are given as the source filed them. No cut-off for these calls is given here.

T1 sequence (P22303 whole entry): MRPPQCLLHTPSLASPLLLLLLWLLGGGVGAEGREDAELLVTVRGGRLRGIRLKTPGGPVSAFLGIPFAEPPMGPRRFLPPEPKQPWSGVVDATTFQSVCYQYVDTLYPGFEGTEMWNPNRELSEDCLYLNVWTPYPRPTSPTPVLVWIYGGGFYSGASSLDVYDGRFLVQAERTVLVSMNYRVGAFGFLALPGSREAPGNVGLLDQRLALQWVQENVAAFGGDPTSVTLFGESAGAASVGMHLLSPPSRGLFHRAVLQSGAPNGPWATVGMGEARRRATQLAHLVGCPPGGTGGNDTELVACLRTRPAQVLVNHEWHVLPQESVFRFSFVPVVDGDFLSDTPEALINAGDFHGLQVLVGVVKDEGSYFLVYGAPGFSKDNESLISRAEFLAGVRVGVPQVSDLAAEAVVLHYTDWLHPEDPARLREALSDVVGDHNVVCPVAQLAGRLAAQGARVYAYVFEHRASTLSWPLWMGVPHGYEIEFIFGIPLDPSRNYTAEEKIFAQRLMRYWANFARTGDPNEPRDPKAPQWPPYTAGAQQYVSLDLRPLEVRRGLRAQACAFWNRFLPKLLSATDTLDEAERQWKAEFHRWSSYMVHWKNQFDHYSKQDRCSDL
Chain of Butyrylcholinesterase (Q9JKC1 whole entry): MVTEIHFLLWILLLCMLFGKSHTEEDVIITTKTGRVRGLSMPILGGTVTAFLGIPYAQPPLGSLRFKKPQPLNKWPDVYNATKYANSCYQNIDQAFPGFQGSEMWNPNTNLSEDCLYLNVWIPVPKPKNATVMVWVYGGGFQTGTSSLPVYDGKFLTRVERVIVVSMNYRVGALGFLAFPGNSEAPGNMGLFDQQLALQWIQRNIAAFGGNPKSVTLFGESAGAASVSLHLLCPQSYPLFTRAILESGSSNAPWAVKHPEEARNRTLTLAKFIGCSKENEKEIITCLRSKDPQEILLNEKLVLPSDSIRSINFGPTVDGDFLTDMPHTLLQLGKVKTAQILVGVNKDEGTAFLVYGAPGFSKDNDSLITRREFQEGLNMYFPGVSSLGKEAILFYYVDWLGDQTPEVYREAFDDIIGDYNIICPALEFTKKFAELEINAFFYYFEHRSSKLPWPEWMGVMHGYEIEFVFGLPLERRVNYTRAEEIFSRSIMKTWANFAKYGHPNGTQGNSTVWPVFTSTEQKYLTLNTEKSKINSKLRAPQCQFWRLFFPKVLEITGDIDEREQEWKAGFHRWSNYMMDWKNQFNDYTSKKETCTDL
Chain of Amyloid-beta precursor protein (Homo sapiens) (P05067 whole entry): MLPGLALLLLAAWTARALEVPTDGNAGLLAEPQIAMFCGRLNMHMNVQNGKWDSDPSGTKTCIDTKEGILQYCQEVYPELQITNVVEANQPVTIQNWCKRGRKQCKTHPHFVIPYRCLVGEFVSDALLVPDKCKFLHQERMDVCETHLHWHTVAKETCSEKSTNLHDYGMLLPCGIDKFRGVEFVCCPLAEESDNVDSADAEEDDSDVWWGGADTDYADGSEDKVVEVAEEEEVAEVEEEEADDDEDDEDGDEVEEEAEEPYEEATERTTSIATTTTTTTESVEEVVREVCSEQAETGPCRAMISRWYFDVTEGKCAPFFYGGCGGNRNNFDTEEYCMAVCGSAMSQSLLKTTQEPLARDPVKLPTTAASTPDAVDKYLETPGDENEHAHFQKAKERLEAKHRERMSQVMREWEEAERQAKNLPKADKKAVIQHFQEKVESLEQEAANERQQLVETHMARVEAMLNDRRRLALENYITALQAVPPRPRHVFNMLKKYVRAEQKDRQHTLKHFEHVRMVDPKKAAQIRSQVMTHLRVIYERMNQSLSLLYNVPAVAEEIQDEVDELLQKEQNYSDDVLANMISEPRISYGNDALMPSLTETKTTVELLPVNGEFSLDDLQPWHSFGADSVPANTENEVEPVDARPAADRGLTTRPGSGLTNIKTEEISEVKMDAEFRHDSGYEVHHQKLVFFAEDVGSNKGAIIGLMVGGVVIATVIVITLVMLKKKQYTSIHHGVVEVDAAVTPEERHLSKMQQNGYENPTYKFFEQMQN

As to `CCN(C)C(=O)Oc1ccc(C2CC(=O)c3c(O)cc(OC(=O)N(C)CC)cc3O2)cc1` (stereo unspecified), the Activity in data set [1] amounted to 1; at Acetylcholinesterase [3], 81.7%; in the data set with PC-12, 63.8%; with L02, 73.2%. Further, the IC50 stood at 30.6 µM against Butyrylcholinesterase and 9.7 µM against Acetylcholinesterase [2]. For the same compound, in data set [4], the inhibition result is “Active”. The Flu intensity is given as 3.88 in data set [5], 21.9 in [6] and 15.5 in data set [7]. For the same compound, the result in [8] was Active.

A word on the IC50: it is the concentration that gives 50% inhibition.

The values are drawn from ChEMBL document CHEMBL5143570, “Development of naringenin-O-carbamate derivatives as multi-target-directed liagnds for the treatment of Alzheimer's disease” (Bioorg Med Chem Lett, 2022).
